Experimental data: patent publication US20240277006A1, “ANTIBIOTIC-FREE ANTIMICROBIAL FEED ADDITIVES AND ANTIMICROBIAL COMPOSITIONS” (Sláinte Beoga Teoranta, priority 2018, published 2024)

Tested on: E. coli (1103 DSMZ)
Assay: Checkerboard assay, composition with antibiotic
Type: cell-based
Details: composition comprising a source of iodide ions and a source of hydrogen peroxide plus antibiotic
Description: Checkerboard assays were carried out to determine if there is a synergistic antagonistic effect with the addition of an antibiotic to a composition comprising a source of iodide ions and a source of hydrogen peroxide. • E. coli (1103 DSMZ) was used for tests • These tests were carried out in lysogeny broth (lb) • Antibiotics tested were ampicillin and gentamycin • Procedure: • 50 μl antibiotic • 100 μl composition • 150 μl 10^5 cells in LB Results
Cells shaded in dark grey represent sub-inhibitory concentrations where growth prevailed. Bacterial growth was prevented for the remaining cells. […] However, in the presence of both the composition and the antibiotic, the concentrations required to achieve a kill are lower—in other words, the combined MIC is lower. These can be seen by the entries marked with a star (*).

| SMILES | Effect of the antibiotic in combination with the composition |
| --- | --- |
| CC[C@H]1OC(=O)[C@H](C)[C@@H](O[C@H]2C[C@@](C)(OC)[C@@H](O)[C@H](C)O2)[C@H](C)[C@@H](O[C@@H]2O[C@H](C)C[C@H](N(C)C)[C@H]2O)[C@](C)(OC)C[C@@H](C)C(=O)[C@H](C)[C@@H](O)[C@]1(C)O [clarithromycin] | synergistic effect |
| CC[C@H]1OC(=O)[C@H](C)[C@@H](O[C@H]2C[C@@](C)(OC)[C@@H](O)[C@H](C)O2)[C@H](C)[C@@H](O[C@@H]2O[C@H](C)C[C@H](N(C)C)[C@H]2O)[C@](C)(O)C[C@@H](C)C(=O)[C@H](C)[C@@H](O)[C@]1(C)O [erythromycin] | synergistic effect |
